Reference: patent US4954347A (priority 1988, dated 1990)
“Also recorded” adds a separate entry of the source. Where a name gives a salt, the structure may show the parent alone. Read-outs that look alike come from different tables or passages of the source.

How the values were obtained:
[1] = test system: beta-adrenergic; settings: cited from earlier work
[2] = human, in vivo; cited from earlier work
[3] = test system: fast inward sodium channels; settings: hydrochloride; cited from earlier work
[4] = test system: calcium; settings: cited from earlier work
[5] = test system: supraventricular and ventricular arrhythmias; settings: in vivo; hydrochloride; cited from earlier work
[6] = one patient; quinidine concomitantly with propafenone
[7] = test system: electrically induced arrhythmias, ventricular tachycardias, circus-movement flutter; settings: experimental animals; cited from earlier work

In the case of `COCCc1ccc(OCC(O)CNC(C)C)cc1` (centres unmarked) [metoprolol], the beta-blocking activity [1] is listed as “primarily a beta-adrenergic blocking agent”, the half-life [2] is listed as 3 to 7 h and the systemic bioavailability [2] is listed as 40-50%.
For `CCCNCC(O)COc1ccccc1C(=O)CCc1ccccc1` (centres unmarked) [propafenone, 2'-[3-(prophylamino)-2-(hydroxy)-(propoxy)-3-phenylpropiophenone hydrochloride], the “blockade of fast sodium channels” value [3] is given as “blocks fast inward sodium channels; also recorded: blockade of the fast sodium channel”, the calcium antagonist activity [4] is given as “weak calcium antagonist activity” and the beta-blocking activity ([1]; hydrochloride) is given as “only a weak beta-blocker”. The “suppression of supraventricular and ventricular arrhythmias” value [5] was “effective against recurrent supraventricular and ventricular arrhythmias; also recorded: effective in suppressing both supraventricular and ventricular arrhythmias”.
For `C=C[C@H]1C[N@@]2CC[C@H]1C[C@@H]2[C@@H](O)c1ccnc2ccc(OC)cc12` [quinidine], the “effect on the blood levels of propafenone” value [6] is given as “very pronounced effect”, the “"late" ventricular tachycardias following coronary artery occlusion” value [7] is given as “prevent or terminate” and the circus-movement flutter [7] is given as “terminate or prevent”. For the same molecule, the “threshold for electrically induced arrhythmias” value [7] was “raise the threshold”.
